Experimental data published in patent US20250188123A1, “PROTEASE INHIBITORS” (Regents of the University of Minnesota, priority 2022, published 2025).

Experiments:
Format in all cases: biochemical
Human recombinant Casp9 = biological target: T1, Human recombinant Casp9 (Homo sapiens, UniProt P55211); assay: In vitro caspase panel assay, Casp9; conditions: Casp2 over Casp9, caspase panel
T1 construct: purchased BioVision (Milpitas/CA, USA)
T1 sequence (P55211 1-416): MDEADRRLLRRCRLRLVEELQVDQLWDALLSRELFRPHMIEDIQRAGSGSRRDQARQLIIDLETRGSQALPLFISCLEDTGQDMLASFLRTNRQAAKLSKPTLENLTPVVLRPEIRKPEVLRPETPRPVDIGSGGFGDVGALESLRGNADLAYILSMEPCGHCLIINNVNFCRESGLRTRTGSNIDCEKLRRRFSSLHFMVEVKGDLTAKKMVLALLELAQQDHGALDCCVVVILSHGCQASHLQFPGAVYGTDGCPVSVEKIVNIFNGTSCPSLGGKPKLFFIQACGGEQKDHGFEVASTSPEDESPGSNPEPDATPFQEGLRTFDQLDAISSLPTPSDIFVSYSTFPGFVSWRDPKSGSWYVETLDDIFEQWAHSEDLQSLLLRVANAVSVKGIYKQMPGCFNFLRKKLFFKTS
Text: (§1) Human recombinant Casp1, 6, 7, and 9 were purchased from BioVision (Milpitas/CA, USA). AFC fluorogenic substrates and control peptides (AcYVAD-CHO, AcVDVAD-CHO, AcDEVD-CHO, AcVEID-CHO, and AcLEHD-CHO) were purchased from Bachem (Torrance/CA, USA). The pET23b vector encoding human caspase-3 was a gift of Dr. Michelle Arkin at University of California, San Francisco. Expression and purification of Casp3 was guided by previously described protocols (Denault J-B, Salvesen G S., Current Protocols in Protein Science, 2002, 30(1), 21.13. 1-21.13. 15). Briefly, the plasmid was transformed into E. coli Rosetta 2 pLyss DE3 cells that were cultured at 1 L scale in shake flasks. […] The typical yield for the expression, isolation, and purification was approximately 3 mg/L. The DNA encoding human caspase-2 (hCASP2, amino acids 170-452, free of the N-terminal caspase activation and recruitment domain) open reading frame (ORF) was amplified via polymerase chain reaction (PCR) from full-length hCASP2 cDNA (Origene, Rockville, MD; Cat #SC321316) using following primers: forward, 5′-[…]-3′; reverse, 5′-[…]-3′. […] Proteins were stored in 1× phosphate-buffered saline (pH 7.4) at 10 mg/mL (concentration determined using a BCA assay (Thermo Fisher Scientific)), −80° C. until further use. […]

Human recombinant Casp1 = biological target: T2, Human recombinant Casp1 (Homo sapiens, UniProt P29466); assay: In vitro caspase panel assay, Casp1; conditions: Casp2 over Casp1, caspase panel
T2 construct: purchased BioVision (Milpitas/CA, USA)
T2 sequence (P29466 120-404): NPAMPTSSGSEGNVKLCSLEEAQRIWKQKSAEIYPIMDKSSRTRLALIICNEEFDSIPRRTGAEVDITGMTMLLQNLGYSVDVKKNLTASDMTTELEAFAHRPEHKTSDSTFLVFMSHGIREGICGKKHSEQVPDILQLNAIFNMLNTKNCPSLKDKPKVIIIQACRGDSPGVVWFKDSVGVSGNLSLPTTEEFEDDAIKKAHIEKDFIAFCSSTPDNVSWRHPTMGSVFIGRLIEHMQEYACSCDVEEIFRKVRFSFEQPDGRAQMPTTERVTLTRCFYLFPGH
Text: as §1

Human recombinant Casp7 = biological target: T3, Human recombinant Casp7 (Homo sapiens, UniProt P55210); assay: In vitro caspase panel assay, Casp7; conditions: Casp2 over Casp7, caspase panel
T3 construct: purchased BioVision (Milpitas/CA, USA)
T3 sequence (P55210 1-303): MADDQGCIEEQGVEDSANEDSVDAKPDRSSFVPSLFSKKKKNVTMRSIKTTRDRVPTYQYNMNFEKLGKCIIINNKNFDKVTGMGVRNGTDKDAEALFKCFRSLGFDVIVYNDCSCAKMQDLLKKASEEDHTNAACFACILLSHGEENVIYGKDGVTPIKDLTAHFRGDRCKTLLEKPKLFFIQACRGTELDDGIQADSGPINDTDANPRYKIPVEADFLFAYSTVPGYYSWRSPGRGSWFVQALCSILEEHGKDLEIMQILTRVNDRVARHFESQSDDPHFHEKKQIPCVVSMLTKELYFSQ
Text: as §1

Cc1ccc2c(c1)CCN(C(=O)[C@@H](NC(=O)[C@H](CCCC(=O)O)NC(=O)C1Cc3ccccc3N1)C(C)C)[C@@H]2C(=O)N[C@H](C#N)CC(=O)O (stereo partly drawn) [Compound 1, (8)-6-(((S)-1-((8)-1-(((S)-2-carboxy-1-cyanoethyl)carbamoyl)-6-methyl-3,4-dihydroisoquinolin-2(1H)-yl)-3-methyl-1-oxobutan-2-yl)amino)-5-((S)-indoline-2-carboxamido)-6-oxohexanoic acid]
> 2000 fold: selective versus Casp9 (Human recombinant Casp9) | selective versus Casp1 (Human recombinant Casp1) | selective versus Casp7 (Human recombinant Casp7)
